{"source": "patent US8545896B2", "about": "“Compositions, kits and methods for nutrition supplementation” (Chemo S. A. France, priority 2011, dated 2013)", "origin": "cited, not measured here", "conditions": "intake of about 1000 IU per day, all adults"}
{"smiles": "C=C1CC[C@H](O)C/C1=C/C=C1\\CCC[C@]2(C)[C@@H]([C@H](C)CCCC(C)C)CC[C@@H]12", "note": "[vitamin D3, cholecalciferol]", "values": [{"measurement": "share of the population brought up to the 30 ng/ml serum range for 25-hydroxyvitamin D", "result": "at least 50%"}]}
